Experiments:
[1] = biological target: Tyrosine-protein kinase ABL2 (Homo sapiens) (UniProt P42684); conditions: Compound concentration 100.0 nM
[2] = biological target: T1, Activin receptor type-1B (Homo sapiens) (UniProt P36896); conditions: Compound concentration 100.0 nM
T1 sequence (whole entry): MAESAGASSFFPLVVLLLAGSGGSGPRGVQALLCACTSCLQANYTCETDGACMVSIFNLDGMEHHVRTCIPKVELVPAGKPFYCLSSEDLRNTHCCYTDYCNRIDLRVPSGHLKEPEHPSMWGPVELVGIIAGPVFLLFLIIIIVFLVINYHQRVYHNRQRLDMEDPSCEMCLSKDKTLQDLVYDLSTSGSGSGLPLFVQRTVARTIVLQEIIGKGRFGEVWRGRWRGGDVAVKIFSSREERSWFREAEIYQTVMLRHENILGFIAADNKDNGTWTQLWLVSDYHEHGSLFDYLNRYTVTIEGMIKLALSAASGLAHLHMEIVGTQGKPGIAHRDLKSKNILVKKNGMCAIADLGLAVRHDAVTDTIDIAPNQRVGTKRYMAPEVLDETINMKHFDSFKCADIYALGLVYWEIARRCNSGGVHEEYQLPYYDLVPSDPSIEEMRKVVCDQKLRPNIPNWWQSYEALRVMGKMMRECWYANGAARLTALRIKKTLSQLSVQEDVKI

[3] = biological target: Atypical kinase COQ8A, mitochondrial (Homo sapiens) (UniProt Q8NI60); conditions: Compound concentration 100.0 nM
[4] = biological target: Cyclin-dependent kinase 4 (Homo sapiens) (UniProt P11802); conditions: Compound concentration 100.0 nM
[5] = biological target: Serine/threonine-protein kinase Chk2 (Homo sapiens) (UniProt O96017); conditions: Compound concentration 100.0 nM
[6] = biological target: Dual specificity protein kinase CLK1 (Homo sapiens) (UniProt P49759); conditions: Compound concentration 100.0 nM
[7] = biological target: Dual specificity protein kinase CLK4 (Homo sapiens) (UniProt Q9HAZ1); conditions: Compound concentration 100.0 nM
[8] = biological target: Casein kinase I isoform gamma-2 (Homo sapiens) (UniProt P78368); conditions: Compound concentration 100.0 nM
[9] = biological target: Death-associated protein kinase 1 (Homo sapiens) (UniProt P53355); conditions: Compound concentration 100.0 nM
[10] = biological target: Dual specificity tyrosine-phosphorylation-regulated kinase 2 (Homo sapiens) (UniProt Q92630); conditions: Compound concentration 100.0 nM
[11] = tested on: Epidermal growth factor receptor (Homo sapiens), P00533 [UNDEFINED MUTATION]; conditions: Compound concentration 100.0 nM
[12] = tested on: Receptor-type tyrosine-protein kinase FLT3 (Homo sapiens), P36888 [UNDEFINED MUTATION]; conditions: Compound concentration 100.0 nM
[13] = biological target: Tyrosine-protein kinase Fyn (Homo sapiens) (UniProt P06241); conditions: Compound concentration 100.0 nM
[14] = biological target: G protein-coupled receptor kinase 4 (Homo sapiens) (UniProt P32298); conditions: Compound concentration 100.0 nM
[15] = biological target: LIM domain kinase 2 (Homo sapiens) (UniProt P53671); conditions: Compound concentration 100.0 nM
[16] = biological target: Leucine-rich repeat serine/threonine-protein kinase 2 (Homo sapiens) (UniProt Q5S007); conditions: Compound concentration 100.0 nM
[17] = biological target: Mitogen-activated protein kinase kinase kinase kinase 5 (Homo sapiens) (UniProt Q9Y4K4); conditions: Compound concentration 100.0 nM
[18] = biological target: Dual specificity mitogen-activated protein kinase kinase 3 (Homo sapiens) (UniProt P46734); conditions: Compound concentration 100.0 nM
[19] = biological target: Dual specificity mitogen-activated protein kinase kinase 4 (Homo sapiens) (UniProt P45985); conditions: Compound concentration 100.0 nM
[20] = biological target: Dual specificity mitogen-activated protein kinase kinase 5 (Homo sapiens) (UniProt Q13163); conditions: Compound concentration 100.0 nM
[21] = biological target: Serine/threonine-protein kinase 24 (Homo sapiens) (UniProt Q9Y6E0); conditions: Compound concentration 100.0 nM
[22] = biological target: Cyclin-dependent kinase 18 (Homo sapiens) (UniProt Q07002); conditions: Compound concentration 100.0 nM
[23] = biological target: Serine/threonine-protein kinase pim-2 (Homo sapiens) (UniProt Q9P1W9); conditions: Compound concentration 100.0 nM
[24] = biological target: cGMP-dependent protein kinase 2 (Homo sapiens) (UniProt Q13237); conditions: Compound concentration 100.0 nM
[25] = biological target: Rho-associated protein kinase 2 (Homo sapiens) (UniProt O75116); conditions: Compound concentration 100.0 nM
[26] = biological target: Serine/threonine-protein kinase Sgk3 (Homo sapiens) (UniProt Q96BR1); conditions: Compound concentration 100.0 nM
[27] = biological target: Tyrosine-protein kinase SYK (Homo sapiens) (UniProt P43405); conditions: Compound concentration 100.0 nM
[28] = biological target: Dual specificity testis-specific protein kinase 1 (Homo sapiens) (UniProt Q15569); conditions: Compound concentration 100.0 nM
[29] = biological target: Tyrosine-protein kinase receptor Tie-1 (Homo sapiens) (UniProt P35590); conditions: Compound concentration 100.0 nM
[30] = biological target: Serine/threonine-protein kinase tousled-like 1 (Homo sapiens) (UniProt Q9UKI8); conditions: Compound concentration 100.0 nM
[31] = biological target: Testis-specific serine/threonine-protein kinase 1 (Homo sapiens) (UniProt Q9BXA7); conditions: Compound concentration 100.0 nM
[32] = biological target: Tyrosine-protein kinase receptor TYRO3 (Homo sapiens) (UniProt Q06418); conditions: Compound concentration 100.0 nM
[33] = biological target: Vascular endothelial growth factor receptor 2 (Homo sapiens) (UniProt P35968); conditions: Compound concentration 100.0 nM
[34] = biological target: Serine/threonine-protein kinase 32A (Homo sapiens) (UniProt Q8WU08); conditions: Compound concentration 100.0 nM
[35] = biological target: Serine/threonine-protein kinase 25 (Homo sapiens) (UniProt O00506); conditions: Compound concentration 100.0 nM
[36] = biological target: Beta-2 adrenergic receptor (Homo sapiens) (UniProt P07550); conditions: Compound concentration 10.0 uM
[37] = biological target: GABA-A receptor; anion channel (Rattus norvegicus) (UniProt O09028+P15431+P18506+P18508+P19969+P20236+P23574+P23576+P28471+P28473+P30191+P62813+P63079+P63138+Q91ZM7+Q9ES14); conditions: Compound concentration 10.0 uM

Sequence of Rho-associated protein kinase 2 (Homo sapiens) (O75116 whole entry, looked up): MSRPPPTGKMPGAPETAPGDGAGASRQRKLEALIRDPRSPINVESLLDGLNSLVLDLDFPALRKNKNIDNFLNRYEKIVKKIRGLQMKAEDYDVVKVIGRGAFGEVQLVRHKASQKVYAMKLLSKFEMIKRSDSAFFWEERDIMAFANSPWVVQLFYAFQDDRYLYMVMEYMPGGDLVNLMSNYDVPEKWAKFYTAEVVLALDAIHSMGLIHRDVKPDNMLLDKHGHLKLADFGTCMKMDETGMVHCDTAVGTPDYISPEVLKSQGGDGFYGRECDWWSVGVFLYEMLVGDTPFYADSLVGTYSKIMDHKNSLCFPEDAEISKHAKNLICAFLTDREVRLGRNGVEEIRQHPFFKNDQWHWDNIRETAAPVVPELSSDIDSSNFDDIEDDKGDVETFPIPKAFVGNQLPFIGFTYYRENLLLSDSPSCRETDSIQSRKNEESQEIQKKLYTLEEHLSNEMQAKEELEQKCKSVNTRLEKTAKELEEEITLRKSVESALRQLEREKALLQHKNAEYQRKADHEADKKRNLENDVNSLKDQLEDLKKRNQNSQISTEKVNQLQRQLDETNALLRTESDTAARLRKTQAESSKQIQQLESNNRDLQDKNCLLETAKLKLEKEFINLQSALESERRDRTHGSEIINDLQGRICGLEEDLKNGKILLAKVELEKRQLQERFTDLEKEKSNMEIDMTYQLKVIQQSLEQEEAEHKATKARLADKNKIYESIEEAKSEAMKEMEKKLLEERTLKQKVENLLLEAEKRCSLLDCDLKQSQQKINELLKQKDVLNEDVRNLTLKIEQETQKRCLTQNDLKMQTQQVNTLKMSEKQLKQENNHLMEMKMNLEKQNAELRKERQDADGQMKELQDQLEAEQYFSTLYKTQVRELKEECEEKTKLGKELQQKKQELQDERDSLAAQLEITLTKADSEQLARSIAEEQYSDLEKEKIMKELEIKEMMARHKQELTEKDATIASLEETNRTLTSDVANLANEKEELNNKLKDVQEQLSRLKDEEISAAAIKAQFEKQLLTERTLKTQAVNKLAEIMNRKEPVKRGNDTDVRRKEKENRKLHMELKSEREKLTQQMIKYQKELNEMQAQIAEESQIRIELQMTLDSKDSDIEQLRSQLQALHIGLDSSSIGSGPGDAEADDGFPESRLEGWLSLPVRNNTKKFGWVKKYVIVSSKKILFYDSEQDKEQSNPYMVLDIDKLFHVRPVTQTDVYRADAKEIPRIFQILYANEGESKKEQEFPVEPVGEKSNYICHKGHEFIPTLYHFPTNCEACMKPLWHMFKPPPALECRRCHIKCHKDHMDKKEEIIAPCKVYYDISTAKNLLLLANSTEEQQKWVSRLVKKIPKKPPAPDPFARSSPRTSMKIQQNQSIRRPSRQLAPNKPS
Sequence of Tyrosine-protein kinase receptor Tie-1 (Homo sapiens) (P35590 whole entry): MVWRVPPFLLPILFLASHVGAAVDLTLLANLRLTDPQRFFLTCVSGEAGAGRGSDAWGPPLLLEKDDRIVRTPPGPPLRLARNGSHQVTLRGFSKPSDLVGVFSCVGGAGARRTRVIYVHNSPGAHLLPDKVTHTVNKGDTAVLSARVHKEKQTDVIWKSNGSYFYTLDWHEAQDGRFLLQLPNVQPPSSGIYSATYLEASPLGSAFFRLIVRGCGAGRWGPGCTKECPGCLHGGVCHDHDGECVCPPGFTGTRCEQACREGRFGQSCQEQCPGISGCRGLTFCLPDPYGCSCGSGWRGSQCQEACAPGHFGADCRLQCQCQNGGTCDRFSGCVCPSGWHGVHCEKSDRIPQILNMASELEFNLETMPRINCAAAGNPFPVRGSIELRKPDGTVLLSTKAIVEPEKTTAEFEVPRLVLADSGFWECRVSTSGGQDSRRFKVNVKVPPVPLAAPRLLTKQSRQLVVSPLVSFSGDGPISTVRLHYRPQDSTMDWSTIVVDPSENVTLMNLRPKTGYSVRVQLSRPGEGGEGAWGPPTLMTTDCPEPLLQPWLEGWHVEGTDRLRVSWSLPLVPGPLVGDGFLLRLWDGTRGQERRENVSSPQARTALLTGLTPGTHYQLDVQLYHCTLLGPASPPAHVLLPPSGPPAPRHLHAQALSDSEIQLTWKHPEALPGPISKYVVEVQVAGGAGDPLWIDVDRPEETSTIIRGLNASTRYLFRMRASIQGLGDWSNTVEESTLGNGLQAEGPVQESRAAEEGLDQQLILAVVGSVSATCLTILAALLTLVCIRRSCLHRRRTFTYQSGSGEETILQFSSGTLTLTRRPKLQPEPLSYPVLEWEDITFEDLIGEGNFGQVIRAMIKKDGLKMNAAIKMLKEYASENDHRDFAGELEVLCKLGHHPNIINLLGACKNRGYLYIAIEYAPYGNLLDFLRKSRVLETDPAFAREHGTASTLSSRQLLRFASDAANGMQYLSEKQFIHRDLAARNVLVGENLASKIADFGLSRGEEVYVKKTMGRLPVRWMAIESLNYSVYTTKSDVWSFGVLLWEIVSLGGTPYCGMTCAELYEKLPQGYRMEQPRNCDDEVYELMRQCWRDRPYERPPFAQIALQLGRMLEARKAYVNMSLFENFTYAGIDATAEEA
Sequence of Death-associated protein kinase 1 (Homo sapiens) (P53355 whole entry, looked up): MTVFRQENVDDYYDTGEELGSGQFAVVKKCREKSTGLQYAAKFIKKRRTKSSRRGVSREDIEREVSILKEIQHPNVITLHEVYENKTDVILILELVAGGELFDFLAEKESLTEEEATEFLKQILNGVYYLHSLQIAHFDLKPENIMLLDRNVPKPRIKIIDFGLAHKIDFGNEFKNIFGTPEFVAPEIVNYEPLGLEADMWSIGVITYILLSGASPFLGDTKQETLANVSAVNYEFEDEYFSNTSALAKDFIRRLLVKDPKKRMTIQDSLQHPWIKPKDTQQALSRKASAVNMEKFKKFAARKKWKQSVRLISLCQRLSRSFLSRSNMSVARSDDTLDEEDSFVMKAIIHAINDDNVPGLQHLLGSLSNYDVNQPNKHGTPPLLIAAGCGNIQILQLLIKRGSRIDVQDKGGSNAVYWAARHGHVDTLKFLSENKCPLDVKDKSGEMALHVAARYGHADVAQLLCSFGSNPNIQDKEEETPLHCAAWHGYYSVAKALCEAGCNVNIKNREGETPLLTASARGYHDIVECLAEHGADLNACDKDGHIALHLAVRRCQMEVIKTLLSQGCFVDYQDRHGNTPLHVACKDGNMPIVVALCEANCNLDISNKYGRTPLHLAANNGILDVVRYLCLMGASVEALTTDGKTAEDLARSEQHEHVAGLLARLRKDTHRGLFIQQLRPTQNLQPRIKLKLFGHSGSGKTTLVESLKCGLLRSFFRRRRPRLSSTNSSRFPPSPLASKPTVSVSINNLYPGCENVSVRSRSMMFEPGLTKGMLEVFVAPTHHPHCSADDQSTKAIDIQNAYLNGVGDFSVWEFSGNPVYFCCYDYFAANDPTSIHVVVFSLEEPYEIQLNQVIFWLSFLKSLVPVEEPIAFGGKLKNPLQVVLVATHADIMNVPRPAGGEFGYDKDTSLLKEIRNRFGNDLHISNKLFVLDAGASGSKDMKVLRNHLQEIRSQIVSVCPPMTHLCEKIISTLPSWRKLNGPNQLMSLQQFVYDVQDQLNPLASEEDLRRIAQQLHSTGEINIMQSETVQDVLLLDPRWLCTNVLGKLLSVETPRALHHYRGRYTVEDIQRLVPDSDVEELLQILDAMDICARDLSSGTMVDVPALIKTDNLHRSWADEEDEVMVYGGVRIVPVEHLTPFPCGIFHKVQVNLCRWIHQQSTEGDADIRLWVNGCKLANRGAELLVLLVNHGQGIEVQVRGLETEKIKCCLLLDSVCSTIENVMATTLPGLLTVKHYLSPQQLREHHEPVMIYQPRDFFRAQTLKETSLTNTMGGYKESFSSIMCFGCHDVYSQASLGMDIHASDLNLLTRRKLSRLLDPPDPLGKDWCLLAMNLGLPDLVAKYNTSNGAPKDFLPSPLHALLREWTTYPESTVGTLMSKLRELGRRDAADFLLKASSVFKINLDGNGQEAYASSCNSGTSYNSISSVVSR
Sequence of Tyrosine-protein kinase receptor TYRO3 (Homo sapiens) (Q06418 whole entry): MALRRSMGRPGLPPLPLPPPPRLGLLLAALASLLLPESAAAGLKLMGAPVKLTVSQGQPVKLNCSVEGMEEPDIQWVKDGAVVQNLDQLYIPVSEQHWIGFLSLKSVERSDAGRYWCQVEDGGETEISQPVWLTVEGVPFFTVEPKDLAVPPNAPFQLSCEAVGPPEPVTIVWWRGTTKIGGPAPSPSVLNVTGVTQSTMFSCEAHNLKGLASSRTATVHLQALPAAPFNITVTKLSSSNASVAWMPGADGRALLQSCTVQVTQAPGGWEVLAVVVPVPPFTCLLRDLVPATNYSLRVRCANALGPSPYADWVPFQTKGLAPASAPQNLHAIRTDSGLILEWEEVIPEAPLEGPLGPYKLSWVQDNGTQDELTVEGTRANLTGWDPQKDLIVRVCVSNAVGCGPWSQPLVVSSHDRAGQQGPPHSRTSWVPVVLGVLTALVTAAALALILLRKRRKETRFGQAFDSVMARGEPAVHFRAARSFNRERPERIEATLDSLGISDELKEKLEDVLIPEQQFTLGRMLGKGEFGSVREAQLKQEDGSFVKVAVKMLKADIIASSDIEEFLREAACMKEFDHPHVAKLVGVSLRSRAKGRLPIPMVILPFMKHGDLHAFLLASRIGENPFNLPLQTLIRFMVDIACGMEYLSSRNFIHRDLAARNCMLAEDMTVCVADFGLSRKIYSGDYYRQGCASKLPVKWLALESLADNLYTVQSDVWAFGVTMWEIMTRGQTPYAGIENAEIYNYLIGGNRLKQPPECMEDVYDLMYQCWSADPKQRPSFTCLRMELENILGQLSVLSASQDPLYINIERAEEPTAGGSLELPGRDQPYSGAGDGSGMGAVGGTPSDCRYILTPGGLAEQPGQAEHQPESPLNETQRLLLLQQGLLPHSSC

CCOC(=O)c1cc2cc(-c3cc(C(=O)NCc4ccc(C(=O)O)cc4)nn3C)ccc2[nH]1 [BI 4394]
inactive: residual activity [1] 100% | residual activity [2] 86% | residual activity [3] 100% | residual activity [4] 82% | residual activity [5] 100% | residual activity [6] 100% | residual activity [7] 89% | residual activity [8] 79% | residual activity [9] 84% | residual activity [10] 76% | residual activity [11] 100% | residual activity [12] 98% | residual activity [13] 100% | residual activity [14] 100% | residual activity [15] 96% | residual activity [16] 81% | residual activity [17] 93% | residual activity [18] 100% | residual activity [19] 93% | residual activity [20] 82% | residual activity [21] 92% | residual activity [22] 100% | residual activity [23] 96% | residual activity [24] 93% | residual activity [25] 85% | residual activity [26] 82% | residual activity [27] 100% | residual activity [28] 97% | residual activity [29] 76% | residual activity [30] 83% | residual activity [31] 100% | residual activity [32] 100% | residual activity [33] 81% | residual activity [34] 75% | residual activity [35] 100% | inhibition [36] -7.76% | inhibition [37] 1.07%

Cn1nc(C(=O)NCc2ccc(C(=O)O)cc2)cc1-c1ccc2[nH]ccc2c1 [BI 4395]
inactive: residual activity [1] 93% | residual activity [2] 83% | residual activity [3] 100% | residual activity [4] 84% | residual activity [5] 100% | residual activity [6] 80% | residual activity [7] 69% | residual activity [8] 90% | residual activity [9] 97% | residual activity [10] 100% | residual activity [11] 94% | residual activity [12] 91% | residual activity [13] 98% | residual activity [14] 96% | residual activity [15] 100% | residual activity [16] 75% | residual activity [17] 96% | residual activity [18] 93% | residual activity [19] 79% | residual activity [20] 63% | residual activity [21] 97% | residual activity [22] 97% | residual activity [23] 81% | residual activity [24] 78% | residual activity [25] 82% | residual activity [26] 96% | residual activity [27] 81% | residual activity [28] 92% | residual activity [29] 93% | residual activity [30] 100% | residual activity [31] 100% | residual activity [32] 100% | residual activity [33] 85% | residual activity [34] 92% | residual activity [35] 91% | inhibition [36] 6.74% | inhibition [37] 29.1%
